Data published in patent publication US11957668B2, “Kinase mutation-associated neurodegenerative disorders” (MEMORIAL SLOAN KETTERING CANCER CENTER, priority 2017, dated 2024).

Tests used:
YFP+ microglia = assay: Protein-level expression of inflammatory and adhesion markers in YFP+ microglia and spinal cord (flow cytometry, immunostaining, Bioplex); type: in vivo, mouse; conditions: BRAF^VE mice, following PLX4720 treatment
Procedure: Preparation of cell suspensions, flow cytometry and cell sorting. Pregnant females were killed by exposure to CO2. Embryos were removed from the uterus, washed in 4° C. phosphate-buffered saline (PBS, Invitrogen) and dissected under a Leica M80 microscope. For blood phenotyping of adult mice, mice were anaesthetized and blood was collected by cardiac puncture. Bone marrow was collected by flushing one leg with 5 ml RPMI (Invitrogen). For flow cytometry experiments, organs were incubated in PBS containing 1 mg/ml collagenase D (Roche), 100 U/ml DNase I (Sigma), 2.4 mg/ml of dispase (Invitrogen) and 3% FCS (Invitrogen) at 37° C. for 30 min prior to mechanical disruption. For embryonic tissue incubation time at 37° C. was reduced to 20 min. For cell sorting, tissues were digested for 30 min at RT in PBS containing 2 mg/ml of collagenase D (Roche), 200 U/ml DNase I (Sigma), 4.8 mg/ml of dispase (Invitrogen), 3% FCS (Invitrogen) and 1 uM of flavopiridol (Sigma) followed by mechanical disruption under a 100 um filter. Cell suspensions were centrifuged at 320 g for 7 min, resuspended in FACS buffer (PBS, 0.5% BSA and 2 mm EDTA) containing purified anti-CD16/32 (1:100 dilution) and 5% normal mouse, 5% normal rat and 5% normal rabbit serum and incubated for 15 min at 4° C. […] For FMO (fluorescence minus one), brain cell suspensions from BRAF^WT and BRAF^VE mice were mixed prior to staining. […]

[1] = test system: Csf1r^MeriCreMer; BRAF^V600E; Rosa26^LSL-YFP mice
Procedure: Mice. […] Genotyping was performed according to protocols described previously for Csf1r^iCre Csf1r^MeriCreMer, CD11^Cre and BRAF^LSL-V600E mice. Cre recombination in Csf1r^MeriCreMer; Rosa26^LSL-YFP; BRAF^LSL-V600E embryos was induced by single injection at E8.5 of 37.5 mg per kg (body weight) of 4-hydroxytamoxifen (OH-TAM, Sigma) into pregnant females. OH-TAM was supplemented with 18.75 mg per kg (body weight) progesterone (Sigma) to counteract the mixed oestrogen agonist effects of tamoxifen, which can result in fetal abortions. Embryonic development was estimated considering the day of vaginal plug formation as 0.5 dpc. […] BRAF^WT and BRAF^VE male and female littermates were assigned randomly into the control or treated group. Scoring of mice was performed blinded and at least weekly by assessing hindlimb reflexes and other behavioral phenotypes such as axial rolling. The investigators were not blinded to allocation during experiments and outcome assessment.
Footprint analysis. Mice were given two trials to run down a runway before the experiment. Mouse forepaws and hindpaws were painted with red and blue ink, respectively. Mice were then allowed to run down a runway lined with white paper. At least four steps from the middle portion of each run were measured for (1) overlap between forepaw and hindpaw placement, (2) stride length, (3) front-base width (the distance between the right and left forelimb strides), and (4) hind-base width (the distance between the right and left hindlimb strides). Mean values were used for graphs and statistical analyses.
As a readout, hind limb clasping reflexes were examined every week and footprint assays were performed as described above before treatment and every 4 weeks during treatment.
To determine the potential effects of BRAF^V600E macrophage clones in adult tissues, a large cohort (n=155) of BRAF^VE mice and littermate controls were analyzed.

CCCS(=O)(=O)Nc1ccc(F)c(C(=O)c2c[nH]c3ncc(Cl)cc23)c1F [PLX4720]
expression of Dectin-1 (Clec7a), LFA-1 (CD11a), VLA-4 (CD49d), the Pdgf receptor, Il1b, and Il17a at the protein level (YFP+ microglia): decrease
onset of neurologic disease (cumulative incidence of the ataxic phenotype) ([1]; PLX4720-impregnated chow 417 mg/kg from 3 months of age, preliminary, small group): delays but does not totally prevent the onset of neurologic disease
disease progression ([1]; ad libitum PLX4720 diet started at one or three months of age): mitigated disease progression in both cases
BRAF^VE mice alive ([1]; by 9 months of age, PLX4720 diet): 80%
average clinical score ([1]; by 9 months of age, PLX4720 diet, score scale 1-4): 2
course of the neurological disease and mortality ([1]; treatment of adult mice with BRAF^V600E mosaicism): slows the course of the neurological disease and reduces its mortality
